In patent publication US9359451B2, “Methods and compositions for treating trauma-hemorrhage using estrogen and derivatives thereof” (THE UAB RESEARCH FOUNDATION, priority 2012, dated 2016):
Entries after “also recorded” stand apart in the source; their conditions may differ.

What was measured:
Format in all cases: in vivo, mouse
spinal cord tissue = assay: Spinal cord injury (clip compression): histology and Luxol fast blue; conditions: 24 h after SCI; for histological alterations of the spinal cord tissue (H&E, histological score): 17β-estradiol 300 μg/kg sc 1 h before, 3 h and 6 h after SCI, ICI 182,780: 500 μg/kg sc 1 h before 17β-estradiol; for myelin structure (Luxol fast blue): ICI 182,780: co-administered with 17β-estradiol
Procedure: Mice were anaesthetized using chloral hydrate (400 mg/kg body weight) (Genovese 2006). A longitudinal incision was made on the midline of the back, exposing the paravertebral muscles. These muscles were dissected away exposing T5-T8 vertebrae. The spinal cord was exposed via a four-level T6-T7 laminectomy and SCI was produced by extradural compression using an aneurysm clip with a closing force of 24 g. Following surgery, 1 ml of saline was administered subcutaneously in order to replace the blood volume lost during surgery. During the surgery and recovery from anesthesia, the mice were placed on a warm heating pad and covered with a warm towel. […] Food and water were provided to the mice ad libitum. During this time period, the animals' bladders were manually voided twice a day until the mice were able to regain normal bladder function. In all injured groups, the spinal cord was compressed for 1 min. Sham-injured animals were only subjected to laminectomy. […] In the experiments regarding the motor score, the animals from all the experimental groups were observed and treated daily for 9 days after SCI. At different time points (see FIG. 30), the mice (n=10 from each group for each of the 3 time points) were sacrificed in order to evaluate the various parameters as described below. Spinal cord biopsies were taken at 24 hours following trauma. Tissue segments containing the lesion (1 cm on each side of the lesion) were paraffin embedded and cut into 5-μm-thick sections. Tissue sections were deparaffinized with xylene, stained with Haematoxylin/Eosin (H&E) and Luxol Fast Blue staining (used to assess demyelination) and studied using light microscopy (Dialux 22 Leitz). The segments of each spinal cord were evaluated by an experienced histopathologist (RO). Damaged neurons were counted and the histopathologic changes of the gray matter were scored on a 6-point […] 2000): 0, no lesion observed, 1, gray matter contained 1 to 5 eosinophilic neurons; 2, gray matter contained 5 to 10 eosinophilic neurons; 3, gray matter contained more than 10 eosinophilic neurons; 4, small infarction (less than one third of the gray matter area); 5, moderate infarction; (one third to one half of the gray matter area); 6, large infarction (more than half of the gray matter area). The scores from all the sections from each spinal cord were averaged to give a final score for an individual mice. All the histological studies were performed in a blinded fashion.

Bax and Bcl-2 = assay: Spinal cord injury: Western blot analysis for Bax and Bcl-2; conditions: 24 h after SCI; ICI 182,780: co-administered with 17β-estradiol
Procedure: Mice were anaesthetized using chloral hydrate (400 mg/kg body weight) (Genovese 2006). A longitudinal incision was made on the midline of the back, exposing the paravertebral muscles. These muscles were dissected away exposing T5-T8 vertebrae. The spinal cord was exposed via a four-level T6-T7 laminectomy and SCI was produced by extradural compression using an aneurysm clip with a closing force of 24 g. Following surgery, 1 ml of saline was administered subcutaneously in order to replace the blood volume lost during surgery. During the surgery and recovery from anesthesia, the mice were placed on a warm heating pad and covered with a warm towel. […] Food and water were provided to the mice ad libitum. During this time period, the animals' bladders were manually voided twice a day until the mice were able to regain normal bladder function. In all injured groups, the spinal cord was compressed for 1 min. Sham-injured animals were only subjected to laminectomy. […] In the experiments regarding the motor score, the animals from all the experimental groups were observed and treated daily for 9 days after SCI. At different time points (see FIG. 30), the mice (n=10 from each group for each of the 3 time points) were sacrificed in order to evaluate the various parameters as described below. […] After 1 hour, tissue lysates were obtained by centrifugation at 100,000×g for 15 min at 4° C. Protein concentrations were estimated by the Bio-Rad protein assay (Bio-Rad Laboratories, Segrate, Milan, Italy) using BSA as standard. […] The blot was performed by transferring proteins from a slab gel to nitrocellulose membrane at 240 mA for 40 min at room temperature. […] The AffiniPure Goat Anti-Rabbit IgG coupled to peroxidase secondary antibody (1:2000; Jackson Immuno Research, Laboratories, Inc., CA, USA) was incubated for 1 hour at room temperature. Subsequently, the blot was extensively washed with PBS, developed using SuperSignal West Pico chemiluminescence Substrate (PIERCE, Milan, Italy), according to the manufacturer's instructions, and exposed to Kodak X-Omat film (Eastman Kodak Co., Rochester, N.Y.). α-Tubulin protein (Sigma; 1:1000) Western blot was performed to ensure equal sample loading. The protein bands of Bax (23˜kDa), or Bcl-2 (26˜kDa) on x-ray film were scanned and densitometrically analyzed with a model GS-700 imaging densitometer (Bio-Rad Laboratories). To ascertain that blots were loaded with equal amounts of protein lysates, they were also incubated in the presence of the antibody against α-tubulin protein (1:10,000 Sigma-Aldrich Corp.). The densitometric data for Western are normalized for loading control values.

hind limb motor function = assay: Spinal cord injury: grading of motor disturbance (modified BBB scale); conditions: every day for 10 days after SCI; pre or post treatment with 17β-estradiol; ICI 182,780: co-administered with 17β-estradiol
Procedure: Mice were anaesthetized using chloral hydrate (400 mg/kg body weight) (Genovese 2006). A longitudinal incision was made on the midline of the back, exposing the paravertebral muscles. These muscles were dissected away exposing T5-T8 vertebrae. The spinal cord was exposed via a four-level T6-T7 laminectomy and SCI was produced by extradural compression using an aneurysm clip with a closing force of 24 g. Following surgery, 1 ml of saline was administered subcutaneously in order to replace the blood volume lost during surgery. During the surgery and recovery from anesthesia, the mice were placed on a warm heating pad and covered with a warm towel. […] Food and water were provided to the mice ad libitum. During this time period, the animals' bladders were manually voided twice a day until the mice were able to regain normal bladder function. In all injured groups, the spinal cord was compressed for 1 min. Sham-injured animals were only subjected to laminectomy. […] In the experiments regarding the motor score, the animals from all the experimental groups were observed and treated daily for 9 days after SCI. At different time points (see FIG. 30), the mice (n=10 from each group for each of the 3 time points) were sacrificed in order to evaluate the various parameters as described below. […] The motor function of mice subjected to compression trauma was assessed once a day for 10 days after injury. […]

Question: Which “histological alterations of the spinal cord tissue (H&E, histological score)” value (spinal cord tissue) does the source give for `C[C@]12CC[C@@H]3c4ccc(O)cc4CC[C@H]3[C@@H]1CC[C@@H]2O` [17β-estradiol] here?
Answer: The value was “significant protection against the SCI-induced histological alteration; also recorded: significant protection from the SCI was observed”.

Question: What about the “myelin structure (Luxol fast blue)” value (spinal cord tissue) of the same compound?
Answer: Its value is “myelin degradation was attenuated”.

Question: What about the “Bax levels (Western blot)” value (Bax and Bcl-2) of the same compound?
Answer: Its value is “prevented the SCI-induced Bax expression; also recorded: Bax band disappeared”.

Question: And the “Bcl-2 expression (Western blot)” value (Bax and Bcl-2)?
Answer: Its value is “significantly reduced the SCI-induced inhibition of Bcl-2 expression; also recorded: Bcl-2 band is more evident”.

Question: And the “hind limb motor disturbance (BBB score)” value (hind limb motor function)?
Answer: Its value is “significant amelioration of hind limb motor disturbances; also recorded: reduces the motor disturbance after SCI”.

Question: `C[C@]12CC[C@@H]3c4ccc(O)cc4C[C@@H](CCCCCCCCC[S+]([O-])CCCC(F)(F)C(F)(F)F)[C@H]3[C@@H]1CC[C@@H]2O` (stereo partly shown) [ICI 182,780] was tested. Which “histological alterations of the spinal cord tissue (H&E, histological score)” value (spinal cord tissue) did it give?
Answer: Its value is “significantly blocked the effect of the 17β-estradiol”.

Question: What about the “myelin structure (Luxol fast blue)” value (spinal cord tissue) of the same compound?
Answer: The value was “significantly blocked the effect of the 17β-estradiol”.

Question: What about the “Bax levels (Western blot)” value (Bax and Bcl-2) of the same compound?
Answer: The value was “significantly blocked the effect of the 17β-estradiol; also recorded: Bax band is more evident in comparison with the band present in the tissue from 17β-estradiol-treated mice”.

Question: What about the “Bcl-2 expression (Western blot)” value (Bax and Bcl-2) of the same compound?
Answer: The value was “significantly blocked the effect of the 17β-estradiol; also recorded: BCL2 band is less evident”.

Question: And the “hind limb motor disturbance (BBB score)” value (hind limb motor function)?
Answer: The value was “significantly blocked the effect of the 17β-estradiol”.
